Test [1] concerns B-lymphocyte cancer cells (U266). Nature of the test: In vitro cytotoxicity, CellTiter-Glo 96 h, U266. The settings on record: Homo sapiens, U-266, read-out: Cytotoxic potency as free drug, IC50, U266. (Cellular ATP, detected with luciferase, serves as a proxy for viable cell number.)
Protocol: (§1) In vitro potency was assessed on multiple cancer cell lines. All cell lines were authenticated by STR profiling at IDEXX Bioresearch and cultured for no more than 2 months after resuscitation. Cells cultured in log-phase growth were seeded for 24 hours in 96-well plates containing 150 μl RPMI 1640 supplemented with 20% FBS. Serial dilutions of antibody-drug conjugates in cell culture media were prepared at 4× working concentrations, and 50 μl of each dilution was added to the 96-well plates. Following addition of test articles, cells were incubated with test articles for 4 days at 37° C. After 96 hours, growth inhibition was assessed by CellTiter-Glo® (Promega, Madison, Wis.) and luminescence was measured on a plate reader.
(§2) Cell viability was determined by CellTiter-Glo staining after 96 h exposure to ADC. […] Ag1 is an antibody targeting a ubiquitous and readily internalizable antigen on cancer cells, Ag2 is cAC10 antibody targeting CD30(+) cancer cells, Ag3 is h1F6 antibody targeting CD70(+) cancer cells, Ag4 is hMEM102 antibody targeting CD48(+) cancer cells, Ag5 is h20F3 antibody targeting NTB-A expressing cancer cells, and h00 is a non-binding control antibody.
For test [2], the system named is renal carcinoma cells (786-O). The test is described as follows: In vitro cytotoxicity, CellTiter-Glo 96 h, 786-O. The settings on record: Homo sapiens, 786-0, read-out: Cytotoxic potency (IC50 class), 786-O.
Protocol: as §1
(§3) Cell viability was determined by CellTiter-Glo staining after 96 h exposure to ADC.
Test [3] relates to pancreatic cancer cells (BxPC3). The test is described as follows: In vitro cytotoxicity, CellTiter-Glo 96 h, BxPC3. To be noted: Homo sapiens, BXPC-3, read-out: Cytotoxic potency (IC50 class), BxPC3.
The test system of test [4] is acute promyelocytic leukemia cells (HL-60). Nature of the test: In vitro cytotoxicity, CellTiter-Glo 96 h, HL-60. To be noted: Homo sapiens, HL-60, read-out: Cytotoxic potency (IC50 class), HL-60.
Protocol: as §1, §2
Test [5] deals with multiple myeloma cells (MM.1R). The test is described as follows: In vitro cytotoxicity, CellTiter-Glo 96 h, MM.1R. The settings on record: read-out: Cytotoxic potency (IC50 class), MM.1R.
Protocol: as §1, §2
The subject of test [6] is Burkitt's lymphoma cells (Ramos). The test is described as follows: In vitro cytotoxicity, CellTiter-Glo 96 h, Ramos. The settings on record: Homo sapiens, read-out: Cytotoxic potency as free drug, IC50, Ramos.
Protocol: as §1, §3
The subject of test [7] is Hodgkin's lymphoma cells (L540cy). The test is described as follows: In vitro cytotoxicity, CellTiter-Glo 96 h, L540cy. To be noted: read-out: Cytotoxic potency (IC50 class), L540cy.
Protocol: as §1, §3
Test [8] deals with acute myeloid leukemia cells (MOLM13). Nature of the test: In vitro cytotoxicity, CellTiter-Glo 96 h, MOLM13. The settings on record: Homo sapiens, MOLM-13, read-out: Cytotoxic potency as free drug, IC50, MOLM13.
Protocol: as §1, §3
Test [9] has as its system multiple drug resistant acute promyelocytic leukemia cells (HL-60/RV). The test is described as follows: In vitro cytotoxicity, CellTiter-Glo 96 h, HL60/RV. To be noted: Homo sapiens, HL-60, read-out: Cytotoxic potency (IC50 class), HL60/RV.
Protocol: as §1, §3
The subject of test [10] is melanoma cells (SK-MEL-5). The test is described as follows: In vitro cytotoxicity, CellTiter-Glo 96 h, SK-MEL-5. The settings on record: Homo sapiens, SK-MEL-5, read-out: Cytotoxic potency as free drug, IC50, SK-MEL-5.
Protocol: as §1, §2
Test [11] concerns B-lymphocyte cancer cells (SU-DHL-4). The test is described as follows: In vitro cytotoxicity, CellTiter-Glo 96 h, SU-DHL-4. To be noted: Homo sapiens, SU-DHL-4, read-out: Cytotoxic potency as free drug, IC50, SU-DHL-4.
Protocol: as §1, §2

Take `CC[C@@]1(O)C(=O)OCc2c1cc1n(c2=O)Cc2c-1nc1cc3c(cc1c2CC(C)C)OCO3` [Compound 6f]: the IC50 in test [1] was in the range of 1 to 10 nM; in [2] it was 1 to 10 nM; in test [3], 1 to 10 nM; in test [4], 10 to 100 nM; in [5] it was 1 to 10 nM; in test [6], 1 to 10 nM. The IC50 in test [7], in test [8], in [9], in test [10] and in test [11] was 1 to 10 nM in each case.

For the compound `CCCCNCc1c2c(nc3cc4c(cc13)OCO4)-c1cc3c(c(=O)n1C2)COC(=O)[C@]3(O)CC` [Compound 5k], the IC50 in test [1] was in the range of 1 to 10 nM; in test [2] it was 1 to 10 nM; in [3], 1 to 10 nM; in test [4] it was 10 to 100 nM; in test [5], 1 to 10 nM; in test [6], 1 to 10 nM. Also, the IC50 in test [7], in test [8], in test [9], in test [10] and in [11] was 1 to 10 nM in each case.

As for `CC[C@@]1(O)C(=O)OCc2c1cc1n(c2=O)Cc2c-1nc1cc3c(cc1c2C1CCCC1)OCO3` [Compound 6i], the IC50 fell in the range of 1 to 10 nM in [1]; 1 to 10 nM in test [2]; 1 to 10 nM in [3]; 10 to 100 nM in [4]; 1 to 10 nM in test [5]; 0.1 to 1 nM in [6]. Further, the IC50 fell in the range of 1 to 10 nM in test [7]; 1 to 10 nM in [8]; 1 to 10 nM in test [9]; 1 to 10 nM in [10]; 0.1 to 1 nM in test [11].

Take `CC[C@@]1(O)C(=O)OCc2c1cc1n(c2=O)Cc2c-1nc1cc(F)c(C)c3c1c2[C@@H](NC(=O)CO)CC3` [Compound 8a]: the IC50 was in the range of 10 to 100 nM in test [1]; 1 to 10 nM in test [2]; 10 to 100 nM in [3]; 100 to 1000 nM in [4]; 1 to 10 nM in [5]; 1 to 10 nM in [6]. Further, the IC50 in test [7] was in the range of 1 to 10 nM; in test [8], 10 to 100 nM; in [9] it was 10 to 100 nM; in [10], 10 to 100 nM; in [11], 1 to 10 nM.

`CCCCCc1c2c(nc3cc4c(cc13)OCO4)-c1cc3c(c(=O)n1C2)COC(=O)[C@]3(O)CC` [Compound 6h]: the IC50 in test [1] is 1 to 10 nM; in [2] it was 0.1 to 1 nM; in test [3] it was 1 to 10 nM; in test [4], 10 to 100 nM; in [5], 1 to 10 nM; in test [6], 0.1 to 1 nM. The IC50 in test [7] is 1 to 10 nM; in test [8] it was 10 to 100 nM; in test [9], 10 to 100 nM; in test [10], 1 to 10 nM; in test [11], 0.1 to 1 nM.

As for `CC[C@@]1(O)C(=O)OCc2c1cc1n(c2=O)Cc2c-1nc1cc3c(cc1c2CNC(=O)CO)OCO3` [Compound 4a], the IC50 in test [1] is 1 to 10 nM; in test [2] it was 10 to 100 nM; in test [3], 10 to 100 nM; in [4], 10 to 100 nM; in [5], 1 to 10 nM; in test [6], 10 to 100 nM. Moreover, the IC50 was 10 to 100 nM in test [7]; 1 to 10 nM in [8]; 10 to 100 nM in test [9]; 1 to 10 nM in [10]; 10 to 100 nM in test [11].

On to `CC[C@@]1(O)C(=O)OCc2c1cc1n(c2=O)Cc2c-1nc1cc3c(cc1c2C)OCO3` [Compound 6p], for which the IC50 in test [1] was 0.1 to 1 nM; in [2], 0.1 to 1 nM; in test [3] it was 0.1 to 1 nM; in test [4] it was 10 to 100 nM; in test [5] it was 0.1 to 1 nM; in [6], 0.1 to 1 nM. The IC50 in [7] was 0.1 to 1 nM; in test [8], 1 to 10 nM; in test [9] it was 1 to 10 nM; in [10] it was 0.1 to 1 nM; in test [11] it was 0.1 to 1 nM.

Regarding `CC[C@@]1(O)C(=O)OCc2c1cc1n(c2=O)Cc2c-1nc1cc3c(cc1c2CN(C)C(=O)CN)OCO3` [Compound 4c], the IC50 in [1] lay within 10 to 100 nM; in test [2] it was 10 to 100 nM; in test [3] it was 100 to 1000 nM; in test [4], 100 to 1000 nM; in test [5], 10 to 100 nM; in test [6], 1 to 10 nM. Also, the IC50 in test [7] was in the range of 10 to 100 nM; in [8], 1 to 10 nM; in test [9], 100 to 1000 nM; in [10], 100 to 1000 nM; in [11], 10 to 100 nM.

Turning to `CC[C@@]1(O)C(=O)OCc2c1cc1n(c2=O)Cc2c-1nc1cc3c(cc1c2CN1CCN(C)CC1)OCO3` [Compound 5h], the IC50 in test [1] fell in the range of 10 to 100 nM; in [2] it was 1 to 10 nM; in test [3], 10 to 100 nM; in test [4], 10 to 100 nM; in test [5], 1 to 10 nM; in test [6], 1 to 10 nM. The IC50 lay in the range of 1 to 10 nM in test [7]; 1 to 10 nM in [8]; 10 to 100 nM in test [9]; 10 to 100 nM in [10]; 1 to 10 nM in test [11].

As for `CC[C@@]1(O)C(=O)OCc2c1cc1n(c2=O)Cc2c-1nc1cc3c(cc1c2CN(C)CCN(C)C)OCO3` [Compound 5t], the IC50 in test [1] was in the range of 10 to 100 nM; in test [2], 1 to 10 nM; in [3] it was 10 to 100 nM; in test [4], 100 to 1000 nM; in [5], 1 to 10 nM; in [6] it was 1 to 10 nM. In addition, the IC50 in test [7] lay within 1 to 10 nM; in test [8] it was 10 to 100 nM; in test [9] it was 10 to 100 nM; in test [10] it was 10 to 100 nM; in [11], 1 to 10 nM.

Consider `CC[C@@]1(O)C(=O)OCc2c1cc1n(c2=O)Cc2c-1nc1cc3c(cc1c2CNC)OCO3` [Compound 5], for which the IC50 was 1 to 10 nM in [1]; 1 to 10 nM in [2]; 10 to 100 nM in test [3]; 10 to 100 nM in [4]; 1 to 10 nM in [5]; 1 to 10 nM in [6]. For the same compound, the IC50 in test [7] was 1 to 10 nM; in test [8] it was 1 to 10 nM; in test [9], 10 to 100 nM; in test [10], 1 to 10 nM; in test [11], 1 to 10 nM.

For `CC[C@@]1(O)C(=O)OCc2c1cc1n(c2=O)Cc2c-1nc1cc(F)c(C)c3c1c2[C@@H](N)CC3` [Compound 8b], the IC50 in test [1] lay in the range of 1 to 10 nM; in [2], 1 to 10 nM; in test [3] it was 1 to 10 nM; in test [4] it was 10 to 100 nM; in [5], 1 to 10 nM; in test [6] it was 0.1 to 1 nM. Also, the IC50 in test [7] lay within 1 to 10 nM; in test [8] it was 10 to 100 nM; in test [9] it was 10 to 100 nM; in test [10], 1 to 10 nM; in test [11], 1 to 10 nM.

On to `CC[C@@]1(O)C(=O)OCc2c1cc1n(c2=O)Cc2c-1nc1cc3c(cc1c2CNC(C)C)OCO3` [Compound 5c], for which the IC50 is 1 to 10 nM in test [1]; 1 to 10 nM in test [2]; 1 to 10 nM in [3]; 1 to 10 nM in test [4]; 1 to 10 nM in [5]; 0.1 to 1 nM in test [6]. In addition, the IC50 in [7], in test [8], in test [9], in [10] and in test [11] was 1 to 10 nM throughout.

As for `CC[C@@]1(O)C(=O)OCc2c1cc1n(c2=O)Cc2c-1nc1cc3c(cc1c2CN(CCN)CCO)OCO3` [Compound 5q], the IC50 was in the range of 10 to 100 nM in test [1]; 10 to 100 nM in test [2]; 100 to 1000 nM in test [3]; 100 to 1000 nM in test [4]; 10 to 100 nM in test [5]; 10 to 100 nM in test [6]. The IC50 in [7] was 10 to 100 nM; in test [8] it was 10 to 100 nM; in test [9], 100 to 1000 nM; in [10], 100 to 1000 nM; in [11], 10 to 100 nM.

For `CCCc1c2c(nc3cc4c(cc13)OCO4)-c1cc3c(c(=O)n1C2)COC(=O)[C@]3(O)CC` [Compound 6a], the IC50 in [1] fell in the range of 1 to 10 nM; in [2] it was 1 to 10 nM; in [3], 1 to 10 nM; in [4], 1 to 10 nM; in [5], 1 to 10 nM; in test [6] it was 0.1 to 1 nM. Also, the IC50 in test [7] was in the range of 0.1 to 1 nM; in test [8] it was 1 to 10 nM; in test [9], 1 to 10 nM; in [10], 1 to 10 nM; in [11], 0.1 to 1 nM.

The record behind these values is patent US20190343828A1, “CAMPTOTHECIN PEPTIDE CONJUGATES” (SEATTLE GENETICS, INC., priority 2018, published 2019).
